Data reported in article PMC5944028, “Nonclinical and clinical pharmacological characterization of the potent and selective cathepsin K inhibitor MIV-711” (Journal of Translational Medicine, 2018).

What was measured:
plasma CTX-I = assay: Monkey plasma CTX-I, repeat oral doses; type: in vivo, cynomolgus monkeys (Macaca fascicularis)
Experimental: Repeat dosing experiments were performed in four male monkeys from the group outlined above (Covance). Vehicle or MIV-711 (30 µmol/kg) was given via oral gavage once daily for 5 days between 7:30 and 8:30 a.m. Plasma for CTX-I measurements was collected on Day 1 at baseline, 1, 2, 4, 8 and 12 h after dose, on Days 2, 3 and 4 early in the morning before next dose (i.e. at trough), and on Day 5 at trough, 1, 2, 4, 8, 12 and 24 h after dose. [drawing 2]
(§1) The quantification of CTX-I in monkey plasma samples and human serum samples was performed using a commercially available kit (Serum CrossLaps ELISA, IDS Nordic, Herlev, Denmark). The levels of CTX-I in monkey urine samples were measured using a commercially available kit (Urine BETA CrossLaps ELISA, IDS Nordic). The quantification of NTX-I in monkey samples was performed using a commercially available kit (Osteomark NTx Urine, Wampole Laboratories, Inc, Princeton, USA). Urinary levels of CTX-II in monkey samples were measured using a commercially available kit (Urine CrossLaps EIA, IDS Nordic). The concentrations of biomarkers in the urine samples were corrected for creatinine concentrations. The creatinine levels in urine were determined at Swedish University of Agricultural Sciences, using the enzymatic assay (cat no. 8L24-01) on the Abbott system Architect c4000.

serum CTX-I = assay: Human serum CTX-I, single ascending dose study; type: in vivo, human healthy subjects
Description: Twenty-seven healthy male and female subjects (18 male and 9 female) of any ethnic origin (24 White, 1 Asian, 1 Black, 1 Black/Caribbean White), aged between 19 and 64 years, and with a body mass index (BMI) between 18.0 and 32.0 kg/m^2, were selected for this study. Inclusion criteria for enrollment followed the standard practice for first-in-man studies.
This was a randomized, double-blind, placebo-controlled, sequential, single-ascending dose study conducted at a single site with the objective of evaluating the safety, tolerability, pharmacokinetics (PK) and pharmacodynamics of MIV-711. Subjects were randomized into 3 groups using a computer-generated pseudo-random permutation procedure. Each group consisted of 9 subjects with at least 3 subjects of each gender per group and subjects participated in 1–2 treatment periods. There was a minimum of 10 days between dose escalations and a minimum of 20 days between dosing occasions for individual subjects. For each subsequent dosing occasion, the decision to escalate the dose to the next level was taken after a thorough review of the safety, tolerability and PK data. In each treatment period, 7 subjects received MIV-711 and 2 received placebo (comprising of 1 subject of each gender). Dosing occurred on the morning of Day 1 following an overnight fast and subjects were kept in the fasted state until approximately 4.5 h after dosing. MIV-711 was given as a combination of 10 or 40 mg hard gelatin capsules, while placebo was given in similar capsules of identical appearance.
Blood samples were collected at pre-dose, 4, 8, 24 and 48 h post-dose and processed into serum for the measurement of CTX-I concentrations.
as §1

human cathepsin S = target: T1, human cathepsin S (Homo sapiens, UniProt P25774); assay: Enzyme assay, human cathepsin S; type: biochemical; details: geometric mean
T1 construct: made in house
Description: (§2) Recombinant cathepsin K enzymes from all species were expressed in E. coli, purified and activated. Human cathepsin F and cathepsin S were expressed in Baculovirus, purified and activated. Purified human cathepsins B and H (Athens Research Technology), cathepsin L (Calbiochem), and cathepsin V (R & D Systems) were purchased.
(§3) H-D-Ala_Leu-Lys-AMC was used as the substrate in assays of cathepsin K from non-rodent species (human, dog, rabbit and guinea pig), and Z-Leu-Arg-AMC was used as the substrate in assays of cathepsin K from rodent species (mouse and rat). […]
(§4) Assays were carried out in white polystyrene 96-well plates in a final volume of 100 µL. […] Plates were read in a Fluoroskan Ascent (Thermo Labsystems, Helsinki, Finland) in kinetic mode, with excitation and emission filters of 390 and 460 nm, respectively. Rates were determined by linear regression of the fluorescence/time data in Excel. Rates were fitted by non-linear regression to either the competitive inhibition equation, with the substrate concentration fixed at the value in the assay and the KM fixed to the value previously determined, or the IC50 equation using GraphPad Prism (GraphPad, version 6, San Diego, USA) to obtain Ki or IC50 values, respectively.

guinea pig cathepsin K = assay: Recombinant enzyme assay, guinea pig cathepsin K; type: biochemical; details: geometric mean
Description: as §2, §3, §4

rabbit cathepsin K = target: T2, rabbit cathepsin K (Oryctolagus cuniculus, UniProt P43236); assay: Recombinant enzyme assay, rabbit cathepsin K; type: biochemical; details: footnote a: IC50
T2 construct: made in house; host or cells: E. coli
Description: as §2, §3, §4

pKa = type: physicochemical
human cathepsin B = target: T3, human cathepsin B (Homo sapiens, UniProt P07858); assay: Enzyme assay, human cathepsin B; type: biochemical
T3 construct: purchased Athens Research Technology
Description: as §2, §3, §4

[1] = 30 µmol/kg p.o. once daily, Day 5

T2 sequence (P43236 115-329): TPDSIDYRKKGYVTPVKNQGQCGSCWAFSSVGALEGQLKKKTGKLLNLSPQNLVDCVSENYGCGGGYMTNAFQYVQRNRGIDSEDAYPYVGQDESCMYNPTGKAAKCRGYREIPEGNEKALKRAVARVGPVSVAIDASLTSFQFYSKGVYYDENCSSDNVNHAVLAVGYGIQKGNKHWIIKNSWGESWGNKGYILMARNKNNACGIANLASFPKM
T1 sequence (P25774 115-331): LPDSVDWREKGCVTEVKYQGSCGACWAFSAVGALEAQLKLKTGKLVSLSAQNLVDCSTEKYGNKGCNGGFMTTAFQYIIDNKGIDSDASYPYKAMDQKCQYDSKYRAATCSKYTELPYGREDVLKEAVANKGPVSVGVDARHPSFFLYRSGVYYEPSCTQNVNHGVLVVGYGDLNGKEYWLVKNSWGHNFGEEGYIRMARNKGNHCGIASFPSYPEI

Which results are given for `C#C[C@@H]1CN(C(=O)[C@H](CC(C)C)NC(=O)c2ccc(-c3nc(N4CCN(C)CC4)sc3F)cc2)[C@@H]2C(=O)CO[C@H]12` [MIV-711]?
Maximum reduction of plasma CTX-I from baseline (plasma CTX-I; 30 µmol/kg p.o. once daily, Day 1, 12 h post dose): 76%; Maximal reduction of plasma CTX-I vs initial baseline (plasma CTX-I; [1]): 67%; Trough plasma CTX-I lower than baseline (plasma CTX-I; [1]): 38%; Trough plasma CTX-I lower than baseline (plasma CTX-I; 30 µmol/kg p.o., after the first dose on Day 1): 48%; Inhibition of serum CTX-I versus baseline at 24 h (serum CTX-I; 20 mg single dose): 20%; Reduction of CTX-I at 24 h post-dose (serum CTX-I; 100 mg single dose): 54%; Inhibition of serum CTX-I versus baseline at 24 h (serum CTX-I; 600 mg single dose): 79%; Exposure required for 50% reduction of CTX-I at 24 h post dose (serum CTX-I; AUC0–24h): 1.3 µmol/L/h; Ki (human cathepsin S): 15700 nM; Ki (guinea pig cathepsin K): 9.8 nM; IC50 (rabbit cathepsin K): 3.3 nM; pKa (pKa): 7.15; Ki (human cathepsin B): 1300 nM
